Data published in patent publication US8680012B2, “4-phenyl-pyrane-3,5-diones,4-phenyl-thiopyrane-3,6-diones and cyclohexanetriones as novel herbicides” (Syngenta Crop Protection LLC, priority 2006, dated 2014).

Legend:
[1] = system: Echinochloa crus-galli (ECHCG); test: Example A post-emergence herbicidal activity, glasshouse pot test; format: in vivo; conditions: 360 h, rate 125 g/ha, evaluated 15 days after spraying, read-out: Post-emergence activity ECHCG (100=total damage to plant; 0=no damage to plant)
Protocol: (§1) Seeds of a variety of test species were sown in standard soil in pots. After cultivation for one day (pre-emergence) or after 10 days cultivation (post-emergence) under controlled conditions in a glasshouse, the plants were sprayed with an aqueous spray solution derived from the formulation of the technical active ingredient in 0.6 ml acetone and 45 ml formulation solution containing 10.6% Emulsogen EL (Registry number 61791-12-6), 42.2% N-methylpyrrolidone, 42.2% dipropylene glycol monomethyl ether (Registry number 34590-94-8) and 0.2% X-77 (Registry number 11097-66-8). The test plants were then grown in a greenhouse under optimum conditions until, 15 days later for post-emergence and 20 days for pre-emergence, the test was evaluated (100=total damage to plant; 0=no damage to plant).
(§2) Alopecurus myosuroides (ALOMY), Avena fatua (AVEFA), Lolium perenne (LOLPE), Setaria faberi (SETFA), Digitaria sanguinalis (DIGSA), Echinochloa crus-galli (ECHCG)

[2] = system: Digitaria sanguinalis (DIGSA); test: as above; format: in vivo; conditions: 360 h, rate 125 g/ha, evaluated 15 days after spraying, read-out: Post-emergence activity DIGSA (100=total damage to plant; 0=no damage to plant)
Protocol: as §1, §2

Avena fatua (AVEFA) [3] = test: as above; format: in vivo; conditions: 360 h, rate 125 g/ha, evaluated 15 days after spraying, read-out: Post-emergence activity AVEFA (100=total damage to plant; 0=no damage to plant)
Protocol: as §1, §2

[4] = system: Alopecurus myosuroides (ALOMY); test: as above; format: in vivo; conditions: 360 h, rate 125 g/ha, evaluated 15 days after spraying, read-out: Post-emergence activity ALOMY (100=total damage to plant; 0=no damage to plant)
Protocol: as §1, §2

Lolium perenne (LOLPE) [5] = test: as above; format: in vivo; conditions: 360 h, rate 125 g/ha, evaluated 15 days after spraying, read-out: Post-emergence activity LOLPE (100=total damage to plant; 0=no damage to plant)
Protocol: as §1, §2

Setaria faberi (SETFA) [6] = test: as above; format: in vivo; conditions: 360 h, rate 125 g/ha, evaluated 15 days after spraying, read-out: Post-emergence activity SETFA (100=total damage to plant; 0=no damage to plant)
Protocol: as §1, §2

[7] = system: Echinochloa crus-galli (ECHCG); test: Example A pre-emergence herbicidal activity, glasshouse pot test; format: in vivo; conditions: 480 h, evaluated 20 days after spraying, read-out: Pre-emergence activity ECHCG (100=total damage to plant; 0=no damage to plant); for pest or weed control at 250 g/ha: rate 250 g/ha; for pest or weed control at 500 g/ha: rate 500 g/ha
Protocol: as §1, §2

[8] = system: Digitaria sanguinalis (DIGSA); test: as above; format: in vivo; conditions: 480 h, evaluated 20 days after spraying, read-out: Pre-emergence activity DIGSA (100=total damage to plant; 0=no damage to plant); for pest or weed control at 250 g/ha: rate 250 g/ha; for pest or weed control at 500 g/ha: rate 500 g/ha
Protocol: as §1, §2

Avena fatua (AVEFA) [9] = test: as above; format: in vivo; conditions: 480 h, evaluated 20 days after spraying, read-out: Pre-emergence activity AVEFA (100=total damage to plant; 0=no damage to plant); for pest or weed control at 250 g/ha: rate 250 g/ha; for pest or weed control at 500 g/ha: rate 500 g/ha
Protocol: as §1, §2

[10] = system: Alopecurus myosuroides (ALOMY); test: as above; format: in vivo; conditions: 480 h, evaluated 20 days after spraying, read-out: Pre-emergence activity ALOMY (100=total damage to plant; 0=no damage to plant); for pest or weed control at 250 g/ha: rate 250 g/ha; for pest or weed control at 500 g/ha: rate 500 g/ha
Protocol: as §1, §2

Lolium perenne (LOLPE) [11] = test: as above; format: in vivo; conditions: 480 h, evaluated 20 days after spraying, read-out: Pre-emergence activity LOLPE (100=total damage to plant; 0=no damage to plant); for pest or weed control at 250 g/ha: rate 250 g/ha; for pest or weed control at 500 g/ha: rate 500 g/ha
Protocol: as §1, §2

Setaria faberi (SETFA) [12] = test: as above; format: in vivo; conditions: 480 h, evaluated 20 days after spraying, read-out: Pre-emergence activity SETFA (100=total damage to plant; 0=no damage to plant); for pest or weed control at 250 g/ha: rate 250 g/ha; for pest or weed control at 500 g/ha: rate 500 g/ha
Protocol: as §1, §2

melting point | Structure (SMILES) | pest or weed control at 125 g/ha [1] | pest or weed control at 125 g/ha [2] | pest or weed control at 125 g/ha (Avena fatua (AVEFA) [3]) | pest or weed control at 125 g/ha [4] | pest or weed control at 125 g/ha (Lolium perenne (LOLPE) [5]) | pest or weed control at 125 g/ha (Setaria faberi (SETFA) [6]) | pest or weed control at 250 g/ha [7] | pest or weed control at 250 g/ha [8] | pest or weed control at 250 g/ha (Avena fatua (AVEFA) [9]) | pest or weed control at 250 g/ha [10] | pest or weed control at 250 g/ha (Lolium perenne (LOLPE) [11]) | pest or weed control at 250 g/ha (Setaria faberi (SETFA) [12]) | pest or weed control at 500 g/ha [7] | pest or weed control at 500 g/ha [8] | pest or weed control at 500 g/ha (Avena fatua (AVEFA) [9]) | pest or weed control at 500 g/ha [10] | pest or weed control at 500 g/ha (Lolium perenne (LOLPE) [11]) | pest or weed control at 500 g/ha (Setaria faberi (SETFA) [12])
– | Cc1ccc(-c2ccc(Cl)c(Cl)c2)cc1C1=C(O)C(C)(C)OC(C)(C)C1=O [Compound A-48] | 40% | 40% | 40% | 70% | 0% | 40% | 100% | 60% | 10% | 30% | 0% | 60% | – | – | – | – | – | –
– | CCc1ccc(-c2ccc(Cl)cc2)cc1C1=C(O)C(C)(C)SC(C)(C)C1=O [Compound C-1] | 100% | 100% | 70% | 50% | 30% | 80% | – | – | – | – | – | – | 50% | 30% | 20% | 20% | 30% | 30%
– | Cc1ccc(-c2ccc(Cl)cc2)cc1C1=C(O)COC(C)(C)C1=O (single isomer, unassigned) [Compound A-1] | 70% | 0% | 0% | 10% | 80% | 50% | – | – | – | – | – | – | 50% | 70% | 10% | 40% | 10% | 70%
– | Cc1ccc(-c2ccc(C(F)(F)F)cc2)cc1C1=C(O)C(C)(C)OC(C)(C)C1=O [Compound A-10] | 100% | 100% | 20% | 30% | 0% | 50% | 100% | 100% | 50% | 40% | 60% | 100% | – | – | – | – | – | –
– | CCc1ccc(-c2ccc(Cl)c(C)c2)cc1C1=C(O)C(C)(C)OC(C)(C)C1=O [Compound A-44] | 100% | 70% | 60% | 40% | 60% | 30% | 70% | 100% | 20% | 60% | 80% | 50% | – | – | – | – | – | –
– | CCc1ccc(-c2ccc(Cl)c(F)c2)cc1C1=C(O)C(C)(C)OC(C)(C)C1=O [Compound A-43] | 100% | 100% | 90% | 80% | 80% | 100% | 100% | 100% | 90% | 80% | 80% | 100% | – | – | – | – | – | –
– | Cc1ccc(-c2ccc(F)cc2)cc1C1=C(O)C(C)(C)OC(C)(C)C1=O [Compound A-9] | 80% | 80% | 0% | 50% | 30% | 80% | – | – | – | – | – | – | 50% | 50% | 30% | 20% | 20% | 60%
– | Cc1ccc(-c2ccc(Cl)cc2)cc1C1=C(O)COCC1=O [Compound A-3] | 70% | 40% | 0% | 0% | 0% | 60% | – | – | – | – | – | – | 70% | 70% | 20% | 30% | 20% | 50%
– | Cc1ccc(-c2ccc(Cl)cc2)cc1C1=C(O)[C@@]2(C)CC[C@](C)(O2)C1=O [Compound A-40] | 100% | 70% | 60% | 70% | 60% | 70% | 70% | 70% | 10% | 30% | 20% | 70% | – | – | – | – | – | –
– | COC(=O)OC1=C(c2cc(-c3ccc(Cl)cc3)ccc2C)C(=O)C(C)(C)OC1 [Compound D-5] | 60% | 20% | 40% | 10% | 40% | 70% | – | – | – | – | – | – | 50% | 60% | 20% | 0% | 0% | 20%
79.5 °C | CCc1ccc(-c2ccc(Cl)cc2)cc1C1=C(O)C2CCCC(C1=O)C2=O (stereo not shown) [Compound B-53] | – | – | – | – | – | – | – | – | – | – | – | – | – | – | – | – | – | –
– | Cc1ccc(-c2ccc(Cl)cc2Cl)cc1C1=C(O)C(C)(C)OC(C)(C)C1=O [Compound A-49] | 80% | 70% | 70% | 50% | 80% | 50% | 100% | 50% | 20% | 0% | 20% | 50% | – | – | – | – | – | –
– | CCc1ccc(-c2ccc(Cl)cc2)cc1C1=C(O)C2(CCCC2)OCC1=O [Compound A-36] | 70% | 70% | 0% | 40% | 70% | 60% | 100% | 100% | 60% | 60% | 80% | 90% | – | – | – | – | – | –
